Laboratory results as given in patent US20230203126A1, “A COMPOSITION COMPRISING S-ARRESTIN PEPTIDES” (WORG PHARMACEUTICALS (HANGZHOU) CO., LTD., priority 2019, published 2023).
pIC50: −log10 of the molar value. No end group written: not given here.

Legend:
[1] = tested on: MHC II molecules on dendritic cells (CD11c+ cells); experiment: In vivo MHC class II loading assay (DR3tg mice); set-up: species or system HLA-DR3-transgenic mice; conditions: 100 µg peptide s.c., spleen 2 h post injection, 72 h co-culture, vs PBS-injected control
Experimental: FIG. 2: Peptide 17JK is correctly loaded on MHC class II in vivo. Response of peptide-specific CD4+ T cells towards peptide loaded in vivo on dendritic cells is shown. HLA-DR3-transgenic mice were injected subcutaneously with 100 µg of 17JK peptide. 2 h post injection, spleens were dissected and CD11c+ cells (dendritic cells) were isolated. These CD11c+ cells were co-cultured with peptide-specific CD4+ cells for 72 h at 37° C. IFNy was measured in the supernatant of these cultures to evaluate the response to peptide by the CD4+ T cells. (*** p<0.001 Mann-Whitney U-test)
FIG. 3: Peptide 15N3K is correctly loaded on MHC class II in vivo. […] IFNy was measured in the supernatant of these cultures to evaluate the response to peptide by the CD4+ T cells. […]
When 100 µg of peptide 9K1K was injected in DR2tg mice or when peptide 17JK or 15N3K was injected in DR3tg mice, these peptides could be detected on dendritic cells (CD11c+ cells) in the spleens of these mice 2 h post injection. Activation (IFNY production) of peptide-specific CD4+ T cells by the isolated CD11 c+ cells was used as a read-out. […]
DR3tg or DR2tg mice were injected with 100 µg of peptide in 100 µl PBS subcutaneously (s.c.) in the flank. […] After 72 hours, supernatant of these co-cultures was collected and CD4+ T cell activation was analysed by IFNy ELISA (R&D Systems, Abingdon, UK). […]

[2] = target: HLA-DRA1*0101, DRB1*1101 (DR11) (Homo sapiens, UniProt P01903+P01911, A100R/A169T/A87E/I96F/K41T/L162R/M171V/P40S/Q125H/Q178H/Q39Y/Q99D/R42S/S66Y/T262R/V115G/W38E); experiment: DR11
Experimental: (§1) Table printed on a drawing sheet, Figure 9
(§2) The patent's description of the figure: FIG. 9: Diverse patterns of in vitro peptide-MHC II binding for peptides 9K1, 17JK and 15N3K. Binding of peptides 9K1, 17JK and 15N3K to recombinant HLA-DRA1*0101, DRB1*0101 (DR1), DRB1*1501 (DR2), DRB1*0301 (DR3), DRB1*0401 (DR4), DRB1*1101 (DR11), DRB1*0405 (DR4*05) and DRB1*0901 (DR9) was assessed in vitro. IC50 values (µM) are presented and colour-coded per HLA-DR molecule. Low values (green) indicate strong binding, high values (red) indicate low(er) binding.
(§3) FIG. 9 depicts IC50 (µM) values of peptides 9K1K, 17JK and 15N3K binding to the indicated HLA-DR molecules and competing with a known competitor peptide. Values should be compared only within each HLA-DR molecule. Low IC50 values (green) indicate the strongest binder per HLA-DR molecule. Highest values per HLA-DR molecule (red) are indicative of the lowest binder for that HLA-DR molecule. Intermediate values are indicated in orange. […]
(§4) First copying reader's note: The sheet prints no unit; per the patent description the values are IC50 (µM) for peptide binding to the named HLA-DR molecules, with cell shading coding relative binding strength per HLA-DR molecule.
Where the first naming reader finds the target: description_of_the_figure: recombinant HLA-DRA1*0101, DRB1*0101 (DR1), DRB1*1501 (DR2), DRB1*0301 (DR3), DRB1*0401 (DR4), DRB1*1101 (DR11)

[3] = target: HLA-DRA1*0101, DRB1*0401 (DR4) (Homo sapiens, UniProt P01903+P01911, A100K/A169T/F76Y/I96L/K127E/L162R/M171V/N62H/P40V/Q125Y/R42H/S133A/S149N/S66Y/V115G/V209L/W38E); experiment: DR4
Experimental: as §1, §2, §3, §4
Where the first naming reader finds the target: description_of_the_figure: recombinant HLA-DRA1*0101, DRB1*0101 (DR1), DRB1*1501 (DR2), DRB1*0301 (DR3), DRB1*0401 (DR4)

[4] = target: HLA-DRA1*0101, DRB1*0301 (DR3) (Homo sapiens, UniProt P01903+P01911, A100K/A102G/A103R/A169T/F55Y/I96L/K41T/L162R/M171V/P40S/Q125H/Q178H/Q39Y/R42S/S66N/T106N/T262R/W38E/Y61H); experiment: DR3
Experimental: as §1, §2, §3, §4
Where the first naming reader finds the target: description_of_the_figure: recombinant HLA-DRA1*0101, DRB1*0101 (DR1), DRB1*1501 (DR2), DRB1*0301 (DR3)

HLA-DRA1*0101, DRB1*0301 (DR3), sequence (P01903 26-254 limits assumed, other chains not shown): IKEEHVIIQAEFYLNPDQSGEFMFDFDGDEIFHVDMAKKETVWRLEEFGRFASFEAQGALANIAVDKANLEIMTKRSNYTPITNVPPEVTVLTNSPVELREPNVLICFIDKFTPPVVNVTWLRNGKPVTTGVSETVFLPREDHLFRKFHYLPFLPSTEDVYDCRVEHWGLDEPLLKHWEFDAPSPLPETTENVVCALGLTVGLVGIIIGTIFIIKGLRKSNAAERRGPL
HLA-DRA1*0101, DRB1*1101 (DR11), sequence (P01903 26-254 limits assumed, other chains not shown): as above

| pIC50 [2] | Substance | CD4+ T cell activation (IFNy) by CD11c+ cells isolated from spleen of injected mice [1] | pIC50 [3] | pIC50 [4] |
| --- | --- | --- | --- | --- |
| 6.06 | KKKLTFRRDLYFSRVQVYKKK-NH2 [17JK] | significant CD4+ T cell activation |  |  |
|  | KKKVIFKKISRDKSVTIYLGKKK-NH2 [15N3K] | significant CD4+ T cell activation | 6.08 | 4.83 |
